According to US11833162B2, “Macrocyclic derivatives, process for preparing same and pharmaceutical compositions containing same” (LES LABORATOIRES SERVIER, priority 2017, dated 2023):

Legend:
Bcl-2 protein = Bcl-2 protein (histag-Bcl-2, UniProtKB P10415) (Homo sapiens, UniProt P10415); experiment: Inhibition of Bcl-2 by the fluorescence polarisation technique; assay type: binding; details: for IC50: fluorescence polarisation, 2 hours incubation, read-out: IC50 (μM) Bcl-2 FP
Procedure: The fluorescence polarisation tests were carried out on microplates (384 wells). The Bcl-2 protein, labelled (histag-Bcl-2 such that Bcl-2 corresponds to the UniProtKB® primary accession number: P10415), at a final concentration of 5×10^−9M, is mixed with a fluorescent peptide (Fluorescein-REIGAQLRRMADDLNAQY), at a final concentration of 1.00×10^−9M in a buffer solution (Hepes 10 mM, NaCl 150 mM, Tween20 0.05%, pH 7.4), in the presence or absence of increasing concentrations of test compounds. After incubation for 2 hours, the fluorescence polarisation is measured.

[1] = tested on: RS4; 11 leukaemia tumour line; experiment: In vitro cytotoxicity, Microculture Tetrazolium Assay (MTT); assay type: cell-based; details: Homo sapiens, RS4-11, 48 h, 11 cells, 48 hours exposure
Procedure: The cytotoxicity studies were carried out on the RS4; 11 leukaemia tumour line.
The cells are distributed onto microplates and exposed to the test compounds for 48 hours.
The cell viability is then quantified by a colorimetric assay, the Microculture Tetrazolium Assay (Cancer Res., 1987, 47, 939-942).

Sequence of Bcl-2 protein (P10415 whole entry): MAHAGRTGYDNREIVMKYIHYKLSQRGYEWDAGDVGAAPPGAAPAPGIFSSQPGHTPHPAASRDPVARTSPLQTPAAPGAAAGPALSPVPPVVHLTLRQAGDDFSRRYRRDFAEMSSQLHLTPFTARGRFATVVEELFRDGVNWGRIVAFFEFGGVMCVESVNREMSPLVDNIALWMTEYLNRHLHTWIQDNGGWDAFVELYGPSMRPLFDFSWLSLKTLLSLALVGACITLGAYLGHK

Row | SMILES | IC50 (Bcl-2 protein) | IC50 [1] | Bcl-2 FP, % at given concentration (Bcl-2 protein; @1.1 μM) | Bcl-2 FP, % at given concentration (Bcl-2 protein; @10 μM)
1 | Cc1c2cc(n1C)-c1cc(Cl)ccc1C(=O)N1Cc3ccccc3C(CCOc3c(cnn3C)N(c3ccc(O)cc3)C2=O)C1 (stereo not shown) [Example 22, 11-Chloro-4-(4-hydroxyphenyl)-1,7,8-trimethyl-1,4,16,21,22,23-hexahydro-14H-15,21-methano-6,9-(metheno)dibenzo[j,o]pyrazolo[3,4-b][1,4,8,13]oxatriaza-cyclononadecine-5,14(8H)-dione] | 0.0153 µM | 11.8 nM |  | 
2 | Cc1c2cc(n1C)-c1cc(Cl)ccc1C(=O)N1CCc3c(cccc3OCCc3c(cnn3C3CCOC3)N(c3ccc(O)cc3)C2=O)C1 (stereo not shown) [Example 23, 11-Chloro-4-(4-hydroxyphenyl)-7,8-dimethyl-1-(tetrahydrofuran-3-yl)-1,4,16,17,23,24-hexahydro-14H-15,18-methano-6,9-(metheno)dibenzo[l,r]pyrazolo[3,4-d][1,6,10,15]oxatriazacyclononadecine-5,14(8H)-dione] | 0.0143 µM | 73.3 nM |  | 
3 | Cc1c2cc(n1C)-c1cc(Cl)ccc1C(=O)N1Cc3cccc(c3C1)OCCc1c(cnn1C)N(c1ccc(O)cc1)C2=O [Example 24, 11-Chloro-4-(4-hydroxyphenyl)-1,7,8-trimethyl-1,4,22,23-tetrahydro-14H,16H-15,17-methano-6,9-(metheno)dibenzo[b,g]pyrazolo[4,3-o][1,5,10,14]oxatriaza-cyclooctadecine-5,14(8H)-dione] | 0.0149 µM | 106 nM |  | 
4 | Cc1c(N2C(=O)c3cc(n(C)c3C)-c3cc(Cl)ccc3C(=O)N3CCC(CCOc4cc(O)ccc42)CC3)cc(C#N)n1C [Example 27, 4-[15-Chloro-3-hydroxy-18,19-dimethyl-12,21-dioxo-7,8,9,10,18,21-hexahydro-6H,12H,22H-8,11-ethano-20,17-(metheno)dibenzo[b,j][1,4,8,13]oxatriaza-cyclooctadecin-22-yl]-1,5-dimethyl-1H-pyrrole-2-carbonitrile] | 0.0098 µM | 104 nM |  | 
5 | Cc1c(N2C(=O)c3cc(n(C)c3C)-c3ccccc3C(=O)N3CCC(CCOc4cc(O)ccc42)CC3)cc(C#N)n1C [Example 28, 4-[3-Hydroxy-18,19-dimethyl-12,21-dioxo-7,8,9,10,18,21-hexahydro-6H,12H,22H-8,11-ethano-20,17-(metheno)dibenzo[b,j][1,4,8,13]oxatriazacycloocta-decin-22-yl]-1,5-dimethyl-1H-pyrrole-2-carbonitrile] | 0.0288 µM | 401 nM |  | 
6 | Cc1c2cc(n1C)-c1cc(Cl)ccc1C(=O)N1CCc3c(cccc3OCCC[n+]3cccc(c3)N(c3ccc(O)cc3)C2=O)C1 [Example 30, 6-Chloro-14-(4-hydroxyphenyl)-10,11-dimethyl-2,13-dioxo-23-oxa-1,10,14-triaza-19-azoniahexacyclo[26.3.1.1˜9,12˜.1˜15,19˜.0˜3,8˜.0˜24,29˜]tetratriaconta-3,5,7,9(34),11,15(33),16,18,24,26,28-undecaene trifluoromethanesulphonate] | 0.0314 µM | > 1880 nM |  | 
7 | Cc1c2cc(n1C)-c1cc(Cl)ccc1C(=O)N1CCc3c(cccc3OCCn3c(C)ncc(c3=O)N(c3ccc(O)cc3)C2=O)C1 [Example 31, 6-Chloro-14-(4-hydroxyphenyl)-10,11,18-trimethyl-22-oxa-1,10,14,17,19-pentaazahexacyclo[25.3.1.1˜9,12˜.1˜15,19˜.0˜3,8˜.0˜23,28˜]tritriaconta-3,5,7,9(33),11,15,17,23,25,27-decaene-2,13,32-trione] |  | 1330 nM | 74.55% @1.1 μM | 
8 | Cc1c2cc(n1C)-c1cc(Cl)ccc1C(=O)N1CCc3c(cccc3OCCOCCN(c3ccc(O)cc3)C2=O)C1 [Example 34, 18-chloro-11-(4-hydroxyphenyl)-14,15-dimethyl-6,7,10,11,23,24-hexahydro-9H,21H-1,22-methano-13,16-(metheno)dibenzo[m,s][1,4,7,11,16]dioxatriaza-cycloicosine-12,21(15H)-dione] | 0.0693 µM | 1240 nM |  | 
9 | Cc1c2cc(n1C)-c1cc(Cl)ccc1C(=O)N1Cc3cccc(c3C1)OCCOCCOc1ncc(cn1)N(c1ccc(O)cc1)C2=O [Example 36, 10-Chloro-2-(4-hydroxyphenyl)-5,6-dimethyl-23,26,29-trioxa-2,6,15,31,34-pentaazahexacyclo[28.2.2.1˜4,7˜.1˜15,18˜.0˜8,13˜.0˜17,22˜]hexatriaconta-1(32),4,7(36),8,10,12,17,19,21,30,33-undecaene-3,14-dione] |  | > 600 nM |  | 41.5% @10 μM
10 | Cc1c2cc(n1C)-c1cc(F)ccc1C(=O)N1CCc3c(cccc3OCCOCCOc3ncc(cn3)N(c3ccc(O)cc3)C2=O)C1 [Example 37, 10-Fluoro-2-(4-hydroxyphenyl)-5,6-dimethyl-24,27,30-trioxa-2,6,15,32,35-pentaazahexacyclo[29.2.2.1˜4,7˜.1˜15,19˜.0˜8,13˜.0˜18,23˜]heptatriaconta-1(33),4,7(37),8,10,12,18,20,22,31,34-undecuene-3,14-dione] | 0.0102 µM | 49.6 nM |  | 
11 | Cc1c2cc(n1C)-c1cc(Cl)ccc1C(=O)N1CCc3c(cccc3OCCOCCOc3ncc(cn3)N(c3ccc(O)cc3)C2=O)C1 [Example 38, 10-Chloro-2-(4-hydroxyphenyl)-5,6-dimethyl-24,27,30-trioxa-2,6,15,32,35-pentaazahexacyclo[29.2.2.1˜4,7˜.1˜15,19˜.0˜8,13˜.0˜18,23˜]heptatriaconta-1(33),4,7(37), 8,10,12,18,20,22,31,34-undecuene-3,14-dione] | 0.00385 µM | 23.1 nM |  | 
12 | Cc1c2cc(n1C)-c1cc(Cl)ccc1C(=O)N1CCc3c(cccc3OCCCCCCOc3ncc(cn3)N(c3ccc(O)cc3)C2=O)C1 [Example 39, 10-Chloro-2-(4-hydroxyphenyl)-5,6-dimethyl-24,31-dioxa-2,6,15,33,36-pentaazahexacyclo[30.2.2.1˜4,7˜.1˜15,19˜.0˜8,13˜.0˜18,23˜]octatriaconta-1(34),4,7(38),8,10,12,18,20,22,32,35-undecuene-3,14-dione] | 0.0768 µM | 149 nM |  | 
13 | Cc1c2cc(n1C)-c1cc(Cl)ccc1C(=O)N1CCc3c(cccc3OCCCCCOc3ncc(cn3)N(c3ccc(O)cc3)C2=O)C1 [Example 40, 10-Chloro-2-(4-hydroxyphenyl)-5,6-dimethyl-24,30-dioxa-2,6,15,32,35-pentaazahexacyclo[29.2.2.1˜4,7˜.1˜15,19˜.0˜8,13˜.0˜8,23˜]heptatriaconta-1(33),4,7(37),8,10,12,18,20,22,31,34-undecuene-3,14-dione] | 0.0064 µM | 29.9 nM |  | 
14 | Cc1c2cc(n1C)-c1cc(Cl)ccc1C(=O)N1CCc3c(cccc3OCCCCOc3ncc(cn3)N(c3ccc(O)cc3)C2=O)C1 [Example 41, 10-Chloro-2-(4-hydroxyphenyl)-5,6-dimethyl-24,29-dioxa-2,6,15,31,34-pentaazahexacyclo[28.2.2.1˜4,7˜.1˜15,19˜.0˜8,13˜.0˜18,23˜]hexatriaconta-1(32),4,7(36),8,10,12,18,20,22,30,33-undecaene-3,14-dione] | 0.0467 µM | 197 nM |  | 
15 | Cc1c2cc(n1C)-c1cc(Cl)ccc1C(=O)N1CCCC(COCCOCCOc3ncc(cn3)N(c3ccc(O)cc3)C2=O)C1 (stereo not shown) [Example 42, 10-Chloro-2-(4-hydroxyphenyl)-5,6-dimethyl-21,24,27-trioxa-2,6,15,29,32-pentaazapentacyclo[26.2.2.1˜4,7˜.1˜15,19˜.0˜8,13˜]tetratriaconta-1(30),4, 7(34),8,10,12,28,31-octaene-3,14-dione] |  | > 600 nM |  | 39.2% @10 μM
16 | Cc1c2cc(n1C)-c1cc(Cl)ccc1C(=O)N1CCC(CC1)COCCOCCOc1ncc(cn1)N(c1ccc(O)cc1)C2=O [Example 43, 6-Chloro-14-(4-hydroxyphenyl)-10,11-dimethyl-19,22,25-trioxa-1,10,14,17,32-pentaazapentacyclo[25.2.2.2˜15,18˜. 1˜9,12˜.0˜3,8˜]tetratriaconta-3,5,7,9(34),11,15,17,32-octaene-2,13-dione] |  | > 1880 nM |  | 34.8% @10 μM
17 | Cc1c2cc(n1C)-c1cc(Cl)ccc1C(=O)N1CCc3c(cccc3OCCN(C)CCOc3ncc(cn3)N(c3ccc(O)cc3)C2=O)C1 [Example 44, 10-Chloro-2-(4-hydroxyphenyl)-5,6,27-trimethyl-24,30-dioxa-2,6,15,27,32,35-hexaazahexacyclo[29.2.2.1˜4,7˜.1˜15,19˜.0˜8,13˜.0˜18,23˜]hepta-triaconta-1(33),4,7(37),8,10,12,18,20,22,31,34-undecaene-3,14-dione] | 0.00497 µM | 35.4 nM |  | 
